Measurements as given in article PMC11062899, “De novo development of small cyclic peptides that are orally bioavailable” (Nature Chemical Biology, 2023).
“And” between values parts separate entries of the source, which are not always exact repeats. Equal entries are not always repeated. Where two headings read alike, the source gives them in different places.

Legend:
[1] = Metabolic stability in rat liver microsomes (RLMs); conditions: for microsomal CLint / half-life: rat
[2] = Passive artificial membrane permeability (PAMPA)
[3] = target: human α-thrombin (Homo sapiens, UniProt P00734); assay: Protease inhibition, Ki for human α-thrombin (fluorogenic substrate Z-Gly-Gly-Arg-AMC); format: biochemical; conditions: human alpha thrombin; for Slope normalized to DMSO (proteolytic substrate cleavage over time): replicates R1-R3
Method in brief: (§1)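 Inhibition was measured as AMC fluorescence from 50 μM substrate, monitored for 30 min at 25 °C, relative to a peptide-free control. Human and rat enzymes were present at 2 nM and 3 nM final, respectively, in 50 mM Tris-HCl pH 7.4, 150 mM NaCl, 10 mM MgCl2, 1 mM CaCl2. Ki derives from fitted IC50 via Cheng–Prusoff.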

[4] = target: T1, porcine pepsin (Sus scrofa, UniProt P00791); assay: Peptide stability in simulated gastric fluid (SGF); format: in vitro ADME
T1 construct: 0.32 g of porcine pepsin (Sigma-Aldrich, P7125) was dissolved under gentle agitation; purchased Sigma-Aldrich P7125
Method in brief: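 Peptide from a 1 mM DMSO stock was added to fluid pre-warmed at 37 °C. SGF was pH 1.2 NaCl with porcine pepsin (0.32 g per 100 ml), and SIF was pH 6.8 potassium phosphate with porcine pancreatin (1 g per 100 ml). Supernatant peptide was quantified by LC–MS, with residual expressed as T1/T0.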

[5] = target: T2, rat α-thrombin (Rattus norvegicus, UniProt P18292); assay: Protease inhibition, Ki for rat α-thrombin (fluorogenic substrate Z-Gly-Gly-Arg-AMC); format: biochemical; conditions: rat alpha thrombin; for Slope normalized to DMSO (proteolytic substrate cleavage over time): replicates R1-R3
T2 construct: rat α-thrombin (Molecular Innovations) were used at final concentrations of 2 nM and 3 nM; purchased Molecular Innovations
Method in brief: as §1

T1 sequence (P00791 60-385): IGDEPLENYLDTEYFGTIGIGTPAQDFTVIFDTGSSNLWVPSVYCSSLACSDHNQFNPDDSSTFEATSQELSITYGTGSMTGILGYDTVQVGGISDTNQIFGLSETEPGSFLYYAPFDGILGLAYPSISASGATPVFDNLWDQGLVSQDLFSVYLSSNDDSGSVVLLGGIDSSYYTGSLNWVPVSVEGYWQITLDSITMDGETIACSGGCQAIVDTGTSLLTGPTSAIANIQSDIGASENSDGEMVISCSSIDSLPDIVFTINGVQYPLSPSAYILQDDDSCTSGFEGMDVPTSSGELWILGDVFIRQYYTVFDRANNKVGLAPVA

- TIC value of compound, 0 min, R1 ([1]; rat liver microsomes, 0 min, replicate R1): 21264470
- TIC value of compound, 0 min, R3 ([1]; rat liver microsomes, 0 min, replicate R3): 18840495
- TIC value of compound, 5 min, R1 ([1]; rat liver microsomes, 5 min, replicate R1): 18437497
- TIC value of compound, 5 min, R3 ([1]; rat liver microsomes, 5 min, replicate R3): 18024716
- TIC value of compound, 15 min, R1 ([1]; rat liver microsomes, 15 min, replicate R1): 13918481
- TIC value of compound, 15 min, R3 ([1]; rat liver microsomes, 15 min, replicate R3): 11416589
- TIC value of compound, 30 min, R1 ([1]; rat liver microsomes, 30 min, replicate R1): 9967302
- TIC value of compound, 30 min, R3 ([1]; rat liver microsomes, 30 min, replicate R3): 7497114
- TIC value of compound, 60 min, R1 ([1]; rat liver microsomes, 60 min, replicate R1): 4659151
- TIC value of compound, 60 min, R3 ([1]; rat liver microsomes, 60 min, replicate R3): 3520876
- microsomal CLint ([1]; CL (ul/min/mg protein), R1, RLM CL, replicate R1, unrounded): 52.1 µL/min/mg
- microsomal CLint ([1]; CL (ul/min/mg protein), R2, RLM CL, replicate R2, unrounded): 71 µL/min/mg
- microsomal CLint ([1]; CL (ul/min/mg protein), R3, RLM CL, replicate R3, unrounded): 58.8 µL/min/mg
- half-life ([1]; Half Life (min), R1, RLM metabolic stability, replicate R1): 26.6 min
- half-life ([1]; Half Life (min), R2, RLM metabolic stability, replicate R2): 19.5 min
- half-life ([1]; Half Life (min), R3, RLM metabolic stability, replicate R3): 23.6 min
- half-life ([1]; microsomes, Metabolic stability: Half life T1/2 (min), RLMs, mean and SD, three measurements): 23 ± 3 min
- microsomal CLint ([1]; microsomes, Metabolic stability: RLM CL (ul/min/mg), RLMs, mean and SD, three measurements): 61 ± 8 µL/min/mg
- microsomal CLint ([1]; microsomes, RLM CL, Average, average of R1-R3): 60.6 µL/min/mg
- microsomal CLint ([1]; microsomes, RLM CL, R1, RLM CL, replicate R1, summary block): 52.1 µL/min/mg
- microsomal CLint ([1]; microsomes, RLM CL, R2, RLM CL, replicate R2, summary block): 71 µL/min/mg
- microsomal CLint ([1]; microsomes, RLM CL, R3, RLM CL, replicate R3, summary block): 58.8 µL/min/mg
- PAMPA permeability: % permeability ([2]; 50 μM, 12–18 h, acceptor concentration relative to equilibrium): 45 ± 10%
- Papp at 50 μM ([2]; PAMPA, pH 7.4): 5.89 ×10⁻⁶ cm/s
- Permeability% Average ([2]; top well sample vs theoretical equilibrium sample (TIC), average of R1-R3): 45.3%
- Permeability% ([2]; top well sample vs theoretical equilibrium sample (TIC), single replicates R1-R3): 55.48% and 44.56% and 35.81%
- Ki ([3]; average of R1-R3, read-out: Ki Average, human alpha thrombin inhibition): 96.6 nM
- Slope normalized to DMSO (proteolytic substrate cleavage over time) ([3]; peptide 1.02E-03 uM): 103.0 and 105.2 and 102.2
- Slope normalized to DMSO (proteolytic substrate cleavage over time) ([3]; peptide 1.04E+00 uM): 21.7 and 19.1 and 21.5
- Slope normalized to DMSO (proteolytic substrate cleavage over time) ([3]; peptide 1.27E-04 uM): 106.0 and 98.8 and 103.2
- Slope normalized to DMSO (proteolytic substrate cleavage over time) ([3]; peptide 1.30E-01 uM): 57.8 and 50.1 and 54.9
- Slope normalized to DMSO (proteolytic substrate cleavage over time) ([3]; peptide 1.59E-05 uM): 109.2 and 97.6 and 100.1
- Slope normalized to DMSO (proteolytic substrate cleavage over time) ([3]; peptide 1.63E-02 uM): 89.4 and 85.3 and 86.8
- Slope normalized to DMSO (proteolytic substrate cleavage over time) ([3]; peptide 1.67E+01 uM): 7.7 and 6.1 and 7.5
- Slope normalized to DMSO (proteolytic substrate cleavage over time) ([3]; peptide 2.03E-03 uM): 102.9 and 97.6 and 97.7
- Slope normalized to DMSO (proteolytic substrate cleavage over time) ([3]; peptide 2.08E+00 uM): 19.7 and 13.9 and 8.6
- Slope normalized to DMSO (proteolytic substrate cleavage over time) ([3]; peptide 2.54E-04 uM): 113.7 and 102.5 and 100.7
- Slope normalized to DMSO (proteolytic substrate cleavage over time) ([3]; peptide 2.60E-01 uM): 43.1 and 35.0 and 39.7
- Slope normalized to DMSO (proteolytic substrate cleavage over time) ([3]; peptide 3.18E-05 uM): 105.3 and 102.8 and 93.4
- Slope normalized to DMSO (proteolytic substrate cleavage over time) ([3]; peptide 3.26E-02 uM): 88.2 and 77.6 and 78.4
- Slope normalized to DMSO (proteolytic substrate cleavage over time) ([3]; peptide 3.33E+01 uM): 6.8 and 6.6
- Slope normalized to DMSO (proteolytic substrate cleavage over time) ([3]; peptide 4.07E-03 uM): 95.5 and 99.8 and 99.7
- Slope normalized to DMSO (proteolytic substrate cleavage over time) ([3]; peptide 4.17E+00 uM): 12.3 and 14.8 and 9.6
- Slope normalized to DMSO (proteolytic substrate cleavage over time) ([3]; peptide 5.09E-04 uM): 101.7 and 102.5 and 100.0
- Slope normalized to DMSO (proteolytic substrate cleavage over time) ([3]; peptide 5.21E-01 uM): 26.3 and 24.6 and 23.6
- Slope normalized to DMSO (proteolytic substrate cleavage over time) ([3]; peptide 6.36E-05 uM): 99.2 and 97.4 and 102.8
- Slope normalized to DMSO (proteolytic substrate cleavage over time) ([3]; peptide 6.51E-02 uM): 70.8 and 64.0 and 70.3
- Slope normalized to DMSO (proteolytic substrate cleavage over time) ([3]; peptide 6.67E+01 uM): 6.9 and 8.6 and 6.6
- Slope normalized to DMSO (proteolytic substrate cleavage over time) ([3]; peptide 7.95E-06 uM): 102.4 and 98.2 and 102.1
- Slope normalized to DMSO (proteolytic substrate cleavage over time) ([3]; peptide 8.14E-03 uM): 92.1 and 87.0 and 91.2
- Slope normalized to DMSO (proteolytic substrate cleavage over time) ([3]; peptide 8.33E+00 uM): 12.3 and 13.7 and 5.0
- IC50 ([3]; single replicates R1-R3, read-out: IC50, human alpha thrombin inhibition): 139 nM and 101 nM and 135 nM
- Ki ([3]; single replicates R1-R3, read-out: Ki, human alpha thrombin inhibition): 108 nM and 78 nM and 104 nM
- SGF stability, Residual peptide Average ([4]; after 8 h vs 0 h (TIC), average of R1-R3): 94.64
- SGF stability, Residual peptide ([4]; after 8 h vs 0 h (TIC), single replicates R1-R3): 93.36 and 101.37 and 89.19
- remaining at 8 h ([4]; simulated gi fluid, 8 h, 37 °C, pH 1.2, read-out: Proteolytic stability: SGF (8 h) % remaining): 95 ± 6%
- Ki ([5]; average of R1-R3, read-out: Ki Average, rat alpha thrombin inhibition): 48.7 nM
- Slope normalized to DMSO (proteolytic substrate cleavage over time) ([5]; peptide 1.02E-03 uM): 97.0 and 99.6 and 95.3
- Slope normalized to DMSO (proteolytic substrate cleavage over time) ([5]; peptide 1.04E+00 uM): 14.5 and 15.6 and 13.7
- Slope normalized to DMSO (proteolytic substrate cleavage over time) ([5]; peptide 1.27E-04 uM): 100.8 and 101.2 and 98.8
- Slope normalized to DMSO (proteolytic substrate cleavage over time) ([5]; peptide 1.30E-01 uM): 42.9 and 43.5 and 41.1
- Slope normalized to DMSO (proteolytic substrate cleavage over time) ([5]; peptide 1.59E-05 uM): 100.2 and 103.5 and 96.9
- Slope normalized to DMSO (proteolytic substrate cleavage over time) ([5]; peptide 1.63E-02 uM): 81.2 and 82.0 and 78.1
- Slope normalized to DMSO (proteolytic substrate cleavage over time) ([5]; peptide 1.67E+01 uM): 4.8 and 6.2 and 3.6
- Slope normalized to DMSO (proteolytic substrate cleavage over time) ([5]; peptide 2.03E-03 uM): 97.0 and 98.5 and 91.0
- Slope normalized to DMSO (proteolytic substrate cleavage over time) ([5]; peptide 2.08E+00 uM): 9.6 and 11.2 and 10.1
- Slope normalized to DMSO (proteolytic substrate cleavage over time) ([5]; peptide 2.54E-04 uM): 101.1 and 99.8 and 96.9
- Slope normalized to DMSO (proteolytic substrate cleavage over time) ([5]; peptide 2.60E-01 uM): 27.4 and 28.5 and 28.0
- Slope normalized to DMSO (proteolytic substrate cleavage over time) ([5]; peptide 3.18E-05 uM): 101.5 and 104.3 and 97.0
- Slope normalized to DMSO (proteolytic substrate cleavage over time) ([5]; peptide 3.26E-02 uM): 78.3 and 77.8 and 74.1
- Slope normalized to DMSO (proteolytic substrate cleavage over time) ([5]; peptide 3.33E+01 uM): 5.1 and 5.9 and 3.3
- Slope normalized to DMSO (proteolytic substrate cleavage over time) ([5]; peptide 4.07E-03 uM): 94.4 and 95.7 and 92.3
- Slope normalized to DMSO (proteolytic substrate cleavage over time) ([5]; peptide 4.17E+00 uM): 6.3 and 7.7 and 3.6
- Slope normalized to DMSO (proteolytic substrate cleavage over time) ([5]; peptide 5.09E-04 uM): 98.0 and 98.3 and 95.3
- Slope normalized to DMSO (proteolytic substrate cleavage over time) ([5]; peptide 5.21E-01 uM): 18.6 and 18.9 and 16.5
- Slope normalized to DMSO (proteolytic substrate cleavage over time) ([5]; peptide 6.36E-05 uM): 100.6 and 99.7 and 96.2
- Slope normalized to DMSO (proteolytic substrate cleavage over time) ([5]; peptide 6.51E-02 uM): 60.0 and 58.6 and 62.0
- Slope normalized to DMSO (proteolytic substrate cleavage over time) ([5]; peptide 6.67E+01 uM): 5.5 and 6.9 and 1.9
- Slope normalized to DMSO (proteolytic substrate cleavage over time) ([5]; peptide 7.95E-06 uM): 105.3 and 103.4 and 99.9
- Slope normalized to DMSO (proteolytic substrate cleavage over time) ([5]; peptide 8.14E-03 uM): 89.5 and 90.6 and 84.9
- Slope normalized to DMSO (proteolytic substrate cleavage over time) ([5]; peptide 8.33E+00 uM): 6.7 and 6.6 and 4.7
- IC50 ([5]; single replicates R1-R3, read-out: IC50, rat alpha thrombin inhibition): 86.2 nM and 82.3 nM and 95.4 nM
SMILES: O=C1C[C@H]2CCCN2C(=O)[C@H](Cc2ccccc2)NC(=O)[C@@H](NC(=O)c2ccc(Cl)s2)CCSCc2cccc(n2)CSCCN1 [compound 33]
- Ki ([5]; single replicates R1-R3, read-out: Ki, rat alpha thrombin inhibition): 47.7 nM (2×) and 45.6 nM (2×) and 52.8 nM (2×)
